Series [1] can be described thus: in vitro. Conditions: African green monkey.
Series [2] concerns ZIKV, strain Brazil/2016/INMI1. Briefly: ZIKV viral yield reduction assay on Huh-7 cells. In kind it is cell-based, Zika virus. Summed up:
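Huh-7 cells infected with ZIKV at MOI 1 for 2 h at 37 °C, compounds added right after infection in duplicate at 50, 5 and 0.5 μM. Supernatants taken at 48 h and titrated by plaque assay on VERO E6 under carboxymethyl cellulose with crystal violet staining. % inhibition from PFU/mL versus DMSO-treated control; SI = CC50/EC50.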

Series [3] deals with K-562 (leukemia cell line). Kind of series: NCI-60 single-dose assay. In kind it is cell-based. Conditions: Homo sapiens, K562, read-out: growth inhibition (GI%) and cytotoxicity (negative values). A digest of the protocol:
(§1)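 Read-out is cytotoxic activity from a single-concentration test; the panel spans nine human cancer types, including leukemia, lung, colon and renal.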

The test system of series [4] is IAV strain A/PR/8/34 (H1N1). Briefly: microbe, parasite or virus in culture. Conditions: Influenza A virus, MDCK, read-out: IAV/MDCK EC50.
The test system of series [5] is IAV strain A/PR/8/34 (H1N1). As to conditions: for IAV/MDCK SI: preliminary screening.
The subject of series [6] is SARS-CoV-2 VR PV10734 (strain Milano). Kind of series: microbe, parasite or virus in culture. In kind it is cell-based. As to conditions: preliminary screening (50, 5, 0.5 μM), Vero TMPRSS, read-out: SARS‐CoV‐2/Vero TMPRSS EC50.
Series [7] deals with SW-620 (colon cancer cell line). Briefly: NCI-60 single-dose assay. In kind it is cell-based, human. Conditions: for inhibition at 10 µM: Homo sapiens, SW-620, read-out: growth inhibition (GI%) and cytotoxicity (negative values). A digest of the protocol:
as §1

The test system of series [8] is MOLT-4 (leukemia cell line). Briefly: NCI-60 single-dose assay. As to conditions: for inhibition at 10 µM: Homo sapiens, MOLT-4, read-out: growth inhibition (GI%) and cytotoxicity (negative values). The series is classed as cell-based, human. Summed up: as §1
Series [9] deals with HT29 (colon cancer cell line). Briefly: NCI-60 single-dose assay. The series is classed as cell-based, human. A digest of the protocol:
as §1

Series [10] relates to T-47D (breast cancer cell line). Briefly: NCI-60 single-dose assay. As to conditions: for inhibition at 10 µM: Homo sapiens, T47D, read-out: growth inhibition (GI%) and cytotoxicity (negative values). In kind it is cell-based, human. Summed up: as §1
Series [11] relates to LOX IMVI (melanoma cell line). Briefly: NCI-60 single-dose assay. In kind it is cell-based, human. Conditions: for inhibition at 10 µM: Homo sapiens, read-out: growth inhibition (GI%) and cytotoxicity (negative values). A digest of the protocol: as §1
Another series deals with SR (leukemia cell line). Kind of series: NCI-60 single-dose assay. In kind it is cell-based, human. Conditions: for inhibition at 10 µM: Homo sapiens, read-out: growth inhibition (GI%) and cytotoxicity (negative values); for growth inhibition (GI%) and cytotoxicity (negative values): human. Summed up: as §1
The test system of series [12] is NCI-H522 (non-small cell lung cancer cell line). Kind of series: NCI-60 single-dose assay. The series is classed as cell-based, human. Conditions: for inhibition at 10 µM: Homo sapiens, NCI-H522, read-out: growth inhibition (GI%) and cytotoxicity (negative values). A digest of the protocol: as §1
In series [13] the test system is UACC-62 (melanoma cell line). Briefly: NCI-60 single-dose assay. In kind it is cell-based, human. Conditions: for inhibition at 10 µM: Homo sapiens, UACC-62, read-out: growth inhibition (GI%) and cytotoxicity (negative values). A digest of the protocol: as §1
For series [14], the system named is UACC-257 (melanoma cell line). Briefly: NCI-60 single-dose assay. The series is classed as cell-based, human. As to conditions: for growth inhibition (GI%) and cytotoxicity (negative values): human; for inhibition at 10 µM: Homo sapiens, UACC-257, read-out: growth inhibition (GI%) and cytotoxicity (negative values). A digest of the protocol:
as §1

Series [15] has as its system SN12C (renal cancer cell line). Briefly: NCI-60 single-dose assay. The series is classed as cell-based, human. As to conditions: for inhibition at 10 µM: Homo sapiens, read-out: growth inhibition (GI%) and cytotoxicity (negative values). A digest of the protocol: as §1
Series [16] deals with HCT-116 (colon cancer cell line). Briefly: NCI-60 single-dose assay. In kind it is cell-based, human. Conditions: for inhibition at 10 µM: Homo sapiens, HCT-116, read-out: growth inhibition (GI%) and cytotoxicity (negative values). A digest of the protocol:
as §1

In series [17] the test system is MDA-MB-468 (breast cancer cell line). Kind of series: NCI-60 single-dose assay. The series is classed as cell-based, human. As to conditions: human. Summed up: as §1
Series [18] concerns HCC-2998 (colon cancer cell line). Kind of series: NCI-60 single-dose assay. The series is classed as cell-based, human. Conditions: for growth inhibition (GI%) and cytotoxicity (negative values): human. A digest of the protocol:
as §1

Series [19] has as its system RXF 393 (renal cancer cell line). Kind of series: NCI-60 single-dose assay. The series is classed as cell-based, human. As to conditions: for inhibition at 10 µM: Homo sapiens, RXF 393, read-out: growth inhibition (GI%) and cytotoxicity (negative values). Summed up: as §1
The test system of series [20] is HL-60(TB) (leukemia cell line). Briefly: NCI-60 single-dose assay. The series is classed as cell-based, human. As to conditions: human.
In series [21] the test system is RPMI-8226 (leukemia cell line). Briefly: NCI-60 single-dose assay. The series is classed as cell-based, human. As to conditions: for inhibition at 10 µM: Homo sapiens, RPMI-8226, read-out: growth inhibition (GI%) and cytotoxicity (negative values). A digest of the protocol: as §1
The nature of series [22]: in vitro. As to conditions: dog.
Series [23] in a line: Cytotoxicity on uninfected Huh-7 cells (WST-8, crystal violet). Conditions: human, uninfected Huh-7 cells.
Setting [24] is: Zika virus, preliminary screening (50, 5, 0.5 μM), Huh-7, read-out: ZIKV/Huh‐7 EC50.
[25] abbreviates: Severe acute respiratory syndrome coronavirus 2.

We go through five compounds from publication PMC12566046, “Arylpiperazinyl-Benzocycloheptapyrrole-Carboxamides Endowed with Dual Anticancer and Antiviral Activities” (Molecules, 2025).

Where two headings read alike, the source gives them in different places. A value given as a limit tells only on which side of the number the result lay.

`CCN1CCC[C@H]1CNC(=O)c1[nH]c2c(c1Cl)CCCc1ccccc1-2` [Compound 1, (S)-3-Chloro-N-(1-ethyl-2-pyrrolidinylmethyl)-5,6-dihydro-4H-benzo[6,7]cyclohepta[1,2-b]pyrrol-2-carboxamide] gave a CC50 at 24 h in the series “in vitro [1]” of 14.7 µM. For the same compound, the EC50 was 2.07 µM in [2] (setting [24]), 17.7 µM in [4] and 9.61 µM in series [6] (setting [25]). The inhibition – broadly, the relative decrease from the control value, in per cent – at 10 µM is 94% in series [3]; 96.2% in series [8]; 66.2% in series [10]; 96.3% in the series with SR (leukemia cell line); 73.5% in series [12]; under 60% in series [15]. Further, the inhibition at 10 µM in series [19] stood at 79.7%; in [21], 98.6%. Moreover, the “IAV/MDCK SI” value in series [5] was found to be 0.10. Besides, the “growth inhibition (GI%) and cytotoxicity (negative values)” value (shortened to “growth inhibition (GI%) and cytotoxicity”) in [7] (human) was −30.78%; in series [9] (human), −32.25%; in series [11] (human), −25.00%; in series [13] (human) it was −73.43%; in [14] it was −55.18%; in series [16] (human) it was −25.27%. Also, the results for the “growth inhibition (GI%) and cytotoxicity” value in [17], in series [18] and in series [20] were −3.75%, −21.01% and −38.55%, respectively. Moreover, the CC50 in “in vitro [22]” turned out to be 1.75 µM. This compound gave a CC50 at 48 h in [23] of 3.88 µM.

In “in vitro [1]”, `COc1ccccc1N1CCN(CCNC(=O)c2[nH]c3c(c2Cl)CCCc2ccccc2-3)CC1` [Compound 5] had a CC50 at 24 h of 29.4 µM. In addition, the EC50 in series [2] (Zika virus, Huh-7, read-out: ZIKV/Huh‐7 EC50) stood at 3.82 µM; in series [6] (setting [25]), 34.9 µM. Besides, the inhibition at 10 µM in series [3] came out at 95.8%; in [7], 67.4%; in [8], 93%; in series [11] (LOX IMVI), 82.8%; in the series with SR (leukemia cell line), 90.1%; in series [12], 85.5%. The inhibition at 10 µM in series [13] is under 60%; in series [14], under 60%; in [15], 71.8%; in [16], 94.6%; in [18] (Homo sapiens, HCC 2998, read-out: growth inhibition (GI%) and cytotoxicity (negative values)) it was under 60%; in series [19], 89.4%. For the same compound, in series [21], the inhibition at 10 µM was under 60%. Also, the “growth inhibition (GI%) and cytotoxicity” value in series [9] (human) is −17.44%; in [20], −8.91%. In “in vitro [22]”, the CC50 is 11 µM. In [23], this compound showed a CC50 at 48 h of 24.3 µM.

Compound `O=C(NCCCN1CCN(c2ccccc2)CC1)c1cc2c([nH]1)-c1ccccc1CCC2` [Compound 10, N-(3-(4-Phenylpiperazin-1-yl)propyl)-1,4,5,6-tetrahydrobenzo[6,7]cyclohepta[1,2-b]pyrrole-2-carboxamide] came in with a CC50 at 24 h in “in vitro [1]” of 55.7 µM. Besides, in series [2] (setting [24]), the EC50 was 3.59 µM. In addition, the inhibition at 10 µM is 99.4% in series [3]; 80.1% in series [7]; under 60% in series [8]; 65.8% in series [10]; 95.2% in [11] (LOX IMVI); 71.4% in series [12]. The inhibition at 10 µM in [13] was under 60%; in [15], under 60%; in series [16], 95.7%; in series [21] it was under 60%. Moreover, the “growth inhibition (GI%) and cytotoxicity” value is −2.47% in [9] (human); −19.75% with SR (leukemia cell line); −8.50% in series [14]; −13.75% in [17]; −9.32% in series [18]; −8.69% in series [19] (human). Also, the “growth inhibition (GI%) and cytotoxicity” value in [20] is on record as −30.92%. Further, in “in vitro [22]”, the CC50 came out at 67.8 µM. Further, the CC50 at 48 h in [23] came out at 12.4 µM.

The compound `CCOc1ccccc1N1CCN(CCNC(=O)c2c(Cl)[nH]c3c2CCCc2ccccc2-3)CC1` [Compound 17] returned a CC50 at 24 h in “in vitro [1]” of 37.2 µM. Further, the EC50 in [2] (setting [24]) stood at 4.46 µM; in series [4], 34.9 µM. The inhibition at 10 µM is 100% in [3]; under 60% in series [7]; 95.5% in [8]; 81.5% in series [9] (Homo sapiens, HT-29, read-out: growth inhibition (GI%) and cytotoxicity (negative values)); 77.6% in series [10]; 74.3% in series [11] (LOX IMVI). For the same compound, the inhibition at 10 µM was 65.7% in [12]; under 60% in [13]; 72% in [14]; 60.7% in [15]; 88.9% in [16]; 62.1% in [19]. Besides, in [21], the inhibition at 10 µM is under 60%. In [5], the “IAV/MDCK SI” value stood at 0.23. For the same compound, the “growth inhibition (GI%) and cytotoxicity” value in the series on SR (leukemia cell line) was −5.19%; in [17], −3.78%; in [18], −35.63%; in series [20], −8.21%. In the series “in vitro [22]”, the CC50 amounted to 8.13 µM. Further, the CC50 at 48 h in series [23] was 16.4 µM.

On to “N-(3-(4-Benzylpiperazin-1-yl)propyl)-2-chloro-1,4,5,6-tetrahydrobenzo[6,7]cyclohepta[1,2-b]pyrrole-2-carboxamide [Compound 11]”, for which the EC50 in series [2] (preliminary screening (50, 5, 0.5 μM), Huh-7, read-out: ZIKV/Huh‐7 EC50) turned out to be 3.49 µM; in [5] (read-out: IAV/MDCK EC50, preliminary screening (50, 5, 0.5 μM), MDCK), 17.7 µM; in series [6], 17.7 µM. In addition, the “IAV/MDCK SI” value in [5] came to 0.30. In addition, the “growth inhibition (GI%) and cytotoxicity” value in [7] (SW-620, 10^−5 M, single dose) was determined as 86.67%; in [8] (MOLT-4, 10^−5 M, single dose) it was 99.74%; in series [9] (HT29, 10^−5 M, single dose), 91.03%; in series [10] (T-47D, 10^−5 M, single dose) it was 66.07%; in [11] (LOX IMVI, 10^−5 M, single dose), 99.73%; in series [12] (NCI-H522, 10^−5 M, single dose) it was 82.24%. Further, the “growth inhibition (GI%) and cytotoxicity” value was “– (GI% values < 60% and no cytotoxicity)” in series [15] (10^−5 M, single dose); 96.84% in series [16] (HCT-116, 10^−5 M, single dose); 92.04% in series [21] (RPMI-8226, 10^−5 M, single dose).
